Experimental data published in ChEMBL document CHEMBL1137245, “Synthesis and anti-HIV-1 activity of a novel series of 1,4,2-benzodithiazine-dioxides” (Bioorg Med Chem Lett, 2006).

Assays:
[1] = Therapeutic index, ratio of IC50 for CEM cells to EC50 for HIV1; assay type: cell-based, CCRF-CEM; settings: human, read-out: Ratio IC50/EC50
[2] = test system: Human immunodeficiency virus 1; test: Antiviral activity against HIV1 in CEM cells; assay type: functional, organism-based; settings: Human immunodeficiency virus 1, CCRF-CEM
CCRF-CEM = test: Cytotoxicity against CEM cells; assay type: cell-based; settings: Homo sapiens

| Structure (SMILES) | EC50 [2] [µM] | selectivity ratio [1] | IC50 (CCRF-CEM) [µM] |
| --- | --- | --- | --- |
| Cc1cc2c(cc1Cl)SC1=NCC(C)CN1S2(=O)=O (stereo not drawn) | 162 | > 1.23 | > 200 |
| Cc1cc2c(cc1Cl)SC1=NCCN1S2(=O)=O | 16.5 | 8.2 | 135 |
| Cc1cc2c(cc1Cl)SC1=NCC(C)N1S2(=O)=O (stereo not drawn) | 8.52 | 12.6 | 107 |
| Cc1cc2c(cc1Cl)SC1=NC(CSCc3ccccc3)CN1S2(=O)=O (stereo not drawn) | > 200 | – | 135 |

Stronger by EC50 [2], values ahead:

| EC50 [2] [µM] | Structure (SMILES) | selectivity ratio [1] | IC50 (CCRF-CEM) [µM] |
| --- | --- | --- | --- |
| 0.09 | Cc1cc(Cl)cc2c1S(=O)(=O)N1CCCN=C1S2 | 1180 | 106 |
| 0.98 | Cc1cc2c(cc1Cl)SC1=NCCCN1S2(=O)=O | > 204 | > 200 |
| 4.04 | Cc1cc2c(cc1Cl)SC1=NC(CCl)CN1S2(=O)=O (stereo not drawn) | 6.4 | 28 |
| 4.75 | O=S1(=O)c2ccc(Cl)cc2SC2=NCCCN21 | > 42.1 | > 200 |
